Data reported in patent publication US7439041B2 (Novartis Vaccines and Diagnostics, Inc., priority 2003, dated 2008).

Tests used:
PrP^Sc [1] = biological target: T1, PrP^Sc (Mus musculus, UniProt P04925); format: binding; set-up: key to Western Blot: −: Visually evaluated relative signal intensity; +/−: Visually evaluated relative signal intensity; +: Visually evaluated relative signal intensity; ++: Visually evaluated relative signal intensity; +++: Visually evaluated relative signal intensity; ++++: Visually evaluated relative signal intensity; +++++: Visually evaluated relative signal intensity
PrP^Sc [2] = biological target: T1, PrP^Sc; format: binding
Target sequence in this assay (P04925 23-230 limits assumed): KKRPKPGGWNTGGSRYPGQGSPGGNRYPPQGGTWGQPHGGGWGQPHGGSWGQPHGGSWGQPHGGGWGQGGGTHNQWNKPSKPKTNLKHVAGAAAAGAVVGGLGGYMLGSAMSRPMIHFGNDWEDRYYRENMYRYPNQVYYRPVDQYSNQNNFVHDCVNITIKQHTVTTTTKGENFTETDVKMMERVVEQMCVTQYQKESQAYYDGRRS

Row | Substance | Western Blot (PrP^Sc [1]) | further results
1 | (GG)C(GGG)RPMIHFGNDWEDRYYRENMYR(GGG)C [SEQ ID NO: 46] | + | 
2 | (GGG)AKRPKPGG [SEQ ID NO: 104] | + | 
3 | (GGG)GPKRKGPK [SEQ ID NO: 73] | + | 
4 | (GGG)KARPKPGG [SEQ ID NO: 105] | + | 
5 | (GGG)KKAPKAGG [SEQ ID NO: 108] | + | 
6 | (GGG)KKAPKPGG [SEQ ID NO: 106] | + | 
7 | (GGG)KKKKKKKK (GGGKKKKKKKK) [SEQ ID NO: 85] | +^3 | 
8 | (GGG)KKRAKAGG [SEQ ID NO: 98] | + | 
9 | (GGG)KKRAKPGG [SEQ ID NO: 96] | + and ++ | 
10 | (GGG)KKRPAPGG [SEQ ID NO: 107] | + | 
11 | (GGG)KKRPKAGG [SEQ ID NO: 97] | + and ++ | 
12 | (GGG)KKRPKPGG [SEQ ID NO: 68] | +++ | binding to PrPSc in infected mouse brain homogenate samples (Western blot, FIG. 4) (PrP^Sc [1]): strong binding
13 | (GGG)KKRPKPGGGKKRPKPGG [SEQ ID NO: 72] | + | 
14 | (GGG)KKRPKPGGGQWNKPSKPKTN [SEQ ID NO: 81] | + | 
15 | (GGG)KKRPKPGGWNTGG [SEQ ID NO: 67] | ++ | 
16 | (GGG)KKRPKPGGWNTGGSRYPGQGS [SEQ ID NO: 66] | + | 
17 | (GGG)KPSKPK [SEQ ID NO: 80] | − | 
18 | (GGG)NKPSKPK [SEQ ID NO: 79] | − | 
19 | (GGG)NNKQSPWPTKK [SEQ ID NO: 87] | − | 
20 | (GGG)QANKPSKPKTN [SEQ ID NO: 89] | + and +++ | 
21 | (GGG)QWNAPSKPKTN [SEQ ID NO: 92] | − and + | 
22 | (GGG)QWNKASKAKTN [SEQ ID NO: 95] | − | 
23 | (GGG)QWNKASKPKTN [SEQ ID NO: 90] | − | 
24 | (GGG)QWNKASKPKTN [SEQ ID NO: 99] | +/− | 
25 | (GGG)QWNKPSAPKTN [SEQ ID NO: 93] | − and + | 

Row | Substance | Western Blot (PrP^Sc [1]) | further results
26 | (GGG)QWNKPSKAKTN [SEQ ID NO: 91] | − and + | 
27 | (GGG)QWNKPSKPATN [SEQ ID NO: 94] | − and + | 
28 | (GGG)QWNKPSKPKTN [SEQ ID NO: 14] | +++ | 
29 | (GGG)RPMIHFGNDWEDRYYRENMYR(GG)C [SEQ ID NO: 76] | − | 
30 | (GGG)WNKPSKPKT [SEQ ID NO: 75] | − | 
31 | (GGGG)C(GG)GGWGQGGGTHNQWNKPSKPKTNLKHV(GGGG)C [SEQ ID NO: 35] | + | 
32 | (GGGG)GGWGQGGGTHNQWNKPSKPKTNLKHV [SEQ ID NO: 36] | + | 
33 | (KKK)AGAAAAGAVVGGLGG [SEQ ID NO: 65] | ++ | 
34 | (KKK)AGAAAAGAVVGGLGGYMLGSAM [SEQ ID NO: 57] | + | 
35 | C(GG)GGWGQGGGTHNQWNKPSKPKTNLKHV(GGGG)C [SEQ ID NO: 40] | + | 
36 | DDDAGAAAAGAVVGGLGGYMLGSAM [SEQ ID NO: 83] | − | 
37 | DDDAGAAAAGAVVGGLGGYMLGSAMDDD [SEQ ID NO: 86] | − | 
38 | DKDKGGVGALAGAAVAAGGDKDK [SEQ ID NO: 88] | − | 
39 | GGTHNQWNKPSKPKTN [SEQ ID NO: 54] | + | 
40 | GGWGQGGGTHNQWNKPSKPKTN [SEQ ID NO: 53] | + | 
41 | GGWGQGGGTHNQWNKPSKPKTNLKHV(GGGG) [SEQ ID NO: 37] | + | 
42 | KKKAGAAAAGAVVGGLGGYMLGSAMDDD [SEQ ID NO: 82] | − | 
43 | KKKAGAAAAGAVVGGLGGYMLGSAMKKK [SEQ ID NO: 84] | + | 
44 | PHGGGWGQ [SEQ ID NO: 71] | − | 
45 | PHGGGWGQHGGSWGQPHGGSWGQ [SEQ ID NO: 69] | − | 
46 | PHGGGWGQPHGGSWGQ [SEQ ID NO: 70] | − | 
47 | QWNKPSKPKTN(GGG) [SEQ ID NO: 50] | + | 
48 | QWNKPSKPKTN(GGG)QWNKPSKPKTN [SEQ ID NO: 51] | +++ | ELISA A405nm (PrP^Sc [2]): .923
49 | QWNKPSKPKTNLKHV(GGG) [SEQ ID NO: 77] | ++ | 
50 | RPMIHFGNDWEDRYYRENMYR(GGG) [SEQ ID NO: 44] | − | 
